Here are results for 34 compounds from patent publication US7166738B2, “Non-nucleoside reverse transcriptase inhibitors” (Roche Palo Alto LLC, priority 2004, dated 2007).

On to `Cc1ccc(CC(=O)Nc2ccccc2Cl)cc1Oc1cc(C#N)cc(C#N)c1` [Compound I-34, N-(2-Chloro-phenyl)-2-[3-(3,5-dicyano-phenoxy)-4-methyl-phenyl]-acetamide], for which the melting point lay in the range of 175.1 to 177.5 °C.
The figure for `CCc1ccc(CC(=O)Nc2ccc(S(N)(=O)=O)cc2)cc1Oc1cc(Cl)cc(Br)c1Cl` [Compound I-35, 2-[3-(3-Bromo-2,5-dichloro-phenoxy)-4-ethyl-phenyl]-N-(4-sulfamoyl-phenyl)-acetamide] is 206.9 to 209.9 °C; for `CCc1ccc(CC(=O)Nc2ccc(S(N)(=O)=O)cc2C)cc1Oc1cc(Cl)cc(Br)c1Cl` [Compound I-36, 2-[3-(3-Bromo-2,5-dichloro-phenoxy)-4-ethyl-phenyl]-N-(2-methyl-4-sulfamoyl-phenyl)-acetamide] it is 213.2 to 219.6 °C; for `CCc1ccc(CC(=O)Nc2ccccc2Cl)cc1Oc1cc(Cl)cc(Br)c1Cl` [Compound I-37, 2-[3-(3-Bromo-2,5-dichloro-phenoxy)-4-ethyl-phenyl]-N-(2-chloro-phenyl)-acetamide] it is 146.5 to 147.6 °C.
The result for `CCc1ccc(CC(=O)Nc2ccccc2Cl)cc1Oc1cc(Br)cc(Br)c1Cl` [Compound I-38, N-(2-Chloro-phenyl)-2-[3-(3,5-dibromo-2-chloro-phenoxy)-4-ethyl-phenyl]-acetamide] reads 155.5 to 155.8 °C; that for `CCc1ccc(CC(=O)Nc2ccc(S(N)(=O)=O)cc2)cc1Oc1cc(Br)cc(F)c1Cl` [Compound I-39, 2-[3-(5-Bromo-2-chloro-3-fluoro-phenoxy)-4-ethyl-phenyl]-N-(4-sulfamoyl-phenyl)-acetamide], 209.9 to 211.1 °C.
The figure for `CCc1ccc(CC(=O)Nc2ccc(S(N)(=O)=O)cc2C)cc1Oc1cc(Br)cc(F)c1Cl` [Compound I-40, 2-[3-(5-Bromo-2-chloro-3-fluoro-phenoxy)-4-ethyl-phenyl]-N-(2-methyl-4-sulfamoyl-phenyl)-acetamide] is 207 to 209.9 °C.
Compound `CCc1ccc(CC(=O)Nc2ccccc2Cl)cc1Oc1cc(Br)cc(F)c1Cl` [Compound I-41, 2-[3-(5-Bromo-2-chloro-3-fluoro-phenoxy)-4-ethyl-phenyl]-N-(2-chloro-phenyl)-acetamide] yielded a melting point of 146.6 to 147.2 °C.
The result for `Cc1cc(S(N)(=O)=O)ccc1NC(=O)Cc1ccc(C)c(Oc2cc(C#N)cc(C#N)c2)c1` [Compound I-43, 2-[3-(3,5-Dicyano-phenoxy)-4-methyl-phenyl]-N-(2-methyl-4-sulfamoyl-phenyl)-acetamide] reads 228.6 to 230.9 °C.
The result for `Cc1ccc(CC(=O)Nc2ccc(S(N)(=O)=O)cc2Cl)cc1Oc1cc(C#N)cc(C#N)c1` [Compound I-44, N-(2-Chloro-4-sulfamoyl-phenyl)-2-[3-(3,5-dicyano-phenoxy)-4-methyl-phenyl]-acetamide] reads 209.9 to 211.5 °C; that for `CCc1ccc(CC(=O)Nc2ccc(S(N)(=O)=O)cc2)cc1Oc1cc(Cl)cc(C#N)c1` [Compound I-45, 2-[3-(3-Chloro-5-cyano-phenoxy)-4-ethyl-phenyl]-N-(4-sulfamoyl-phenyl)-acetamide], 170.7 to 172.4 °C; that for `CCc1ccc(CC(=O)Nc2ccc(S(N)(=O)=O)cc2C)cc1Oc1cc(Cl)cc(C#N)c1` [Compound I-46, 2-[3-(3-Chloro-5-cyano-phenoxy)-4-ethyl-phenyl]-N-(2-methyl-4-sulfamoyl-phenyl)-acetamide], 189.1 to 189.4 °C.
In turn, `CCc1ccc(CC(=O)Nc2ccc(S(N)(=O)=O)cc2Cl)cc1Oc1cc(Cl)cc(C#N)c1` [Compound I-47, 2-[3-(3-Chloro-5-cyano-phenoxy)-4-ethyl-phenyl]-N-(2-chloro-4-sulfamoyl-phenyl)-acetamide] had a melting point of 181.1 to 183.9 °C.
In turn, `CCc1ccc(CC(=O)Nc2ccc(S(=O)(=O)NC)cc2)cc1Oc1cc(Cl)cc(C#N)c1` [Compound I-48, 2-[3-(3-Chloro-5-cyano-phenoxy)-4-ethyl-phenyl]-N-(4-methylsulfamoyl-phenyl)-acetamide] registered a melting point of 149.1 to 151.3 °C.
The figure for `CCc1ccc(CC(=O)Nc2ccc(S(N)(=O)=O)cc2)cc1Oc1cc(C#N)cc(F)c1Cl` [Compound I-49, 2-[3-(2-Chloro-5-cyano-3-fluoro-phenoxy)-4-ethyl-phenyl]-N-(4-sulfamoyl-phenyl)-acetamide] is 167.9 to 170.5 °C; for `CCc1ccc(CC(=O)Nc2ccc(S(N)(=O)=O)cc2C)cc1Oc1cc(C#N)cc(F)c1Cl` [Compound I-50, 2-[3-(2-Chloro-5-cyano-3-fluoro-phenoxy)-4-ethyl-phenyl]-N-(2-methyl-4-sulfamoyl-phenyl)-acetamide] it is 217.6 to 220.4 °C; for `CCc1ccc(CC(=O)Nc2ccc(S(N)(=O)=O)cc2)cc1Oc1cc(C#N)cc(C#N)c1Cl` [Compound I-52, 2-[3-(2-Chloro-3,5-dicyano-phenoxy)-4-ethyl-phenyl]-N-(4-sulfamoyl-phenyl)-acetamide] it is 119.7 to 123.3 °C.
The result for `CCc1ccc(CC(=O)Nc2ccc(S(N)(=O)=O)cc2C)cc1Oc1cc(C#N)cc(C#N)c1Cl` [Compound I-53, 2-[3-(2-Chloro-3,5-dicyano-phenoxy)-4-ethyl-phenyl]-N-(2-methyl-4-sulfamoyl-phenyl)-acetamide] reads 199.4 to 205.3 °C.
For the compound `CCc1ccc(CC(=O)Nc2ccc(S(N)(=O)=O)cc2Cl)cc1Oc1cc(C#N)cc(C#N)c1Cl` [Compound I-54, 2-[3-(2-Chloro-3,5-dicyano-phenoxy)-4-ethyl-phenyl]-N-(2-chloro-4-sulfamoyl-phenyl)-acetamide], the melting point lay within 180.3 to 183.1 °C.
Compound `Cc1cc(C#N)cc(C)c1Oc1cc(CC(=O)Nc2ccc(S(N)(=O)=O)cc2)ccc1Cl` [Compound I-55, 2-[4-Chloro-3-(4-cyano-2,6-dimethyl-phenoxy)-phenyl]-N-(4-sulfamoyl-phenyl)-acetamide] yielded a melting point of 227.3 to 231.4 °C.
The result for `Cc1cc(S(N)(=O)=O)ccc1NC(=O)Cc1ccc(Cl)c(Oc2c(C)cc(C#N)cc2C)c1` [Compound I-56, 2-[4-Chloro-3-(4-cyano-2,6-dimethyl-phenoxy)-phenyl]-N-(2-methyl-4-sulfamoyl-phenyl)-acetamide] reads 232.1 to 234.6 °C.
Regarding `COc1ccc(CC(=O)Nc2ccc(S(N)(=O)=O)cc2)cc1Oc1cc(Cl)cc(C#N)c1` [Compound I-57, 2-[3-(3-Chloro-5-cyano-phenoxy)-4-methoxy-phenyl]-N-(4-sulfamoyl-phenyl)-acetamide], the melting point is 218.3 to 221.4 °C.
The result for `CCc1ccc(CC(=O)Nc2ccccc2Cl)cc1Oc1cc(C#N)cc(F)c1Cl` [Compound I-59, 2-[3-(2-Chloro-5-cyano-3-fluoro-phenoxy)-4-ethyl-phenyl]-N-(2-chloro-phenyl)-acetamide] reads 142.1 to 142.8 °C; that for `CCc1ccc(CC(=O)Nc2ccccc2Cl)cc1Oc1cc(C#N)cc(C#N)c1Cl` [Compound I-60, 2-[3-(2-Chloro-3,5-dicyano-phenoxy)-4-ethyl-phenyl]-N-(2-chloro-phenyl)-acetamide], 110 to 111.5 °C; that for `COc1ccc(CC(=O)Nc2ccccc2Cl)cc1Oc1cc(Cl)cc(C#N)c1` [Compound I-61, 2-[3-(3-Chloro-5-cyano-phenoxy)-4-methoxy-phenyl]-N-(2-chloro-phenyl)-acetamide], 175.7 to 178.3 °C.
In turn, `COc1ccc(CC(=O)Nc2ccccc2Cl)cc1Oc1cc(C#N)ccc1Cl` [Compound I-62, 2-[3-(2-Chloro-5-cyano-phenoxy)-4-methoxy-phenyl]-N-(2-chloro-phenyl)-acetamide] had a melting point of 194 to 197.8 °C.
The figure for `COc1ccc(CC(=O)Nc2ccc(S(N)(=O)=O)cc2Cl)cc1Oc1cc(Cl)cc(C#N)c1` [Compound I-64, 2-[3-(3-Chloro-5-cyano-phenoxy)-4-methoxy-phenyl]-N-(2-chloro-4-sulfamoyl-phenyl)-acetamide] is 186.3 to 189.7 °C; for `COc1ccc(CC(=O)Nc2ccc(S(N)(=O)=O)cc2)cc1Oc1cc(C#N)ccc1Cl` [Compound I-65, 2-[3-(2-Chloro-5-cyano-phenoxy)-4-methoxy-phenyl]-N-(4-sulfamoyl-phenyl)-acetamide] it is 252.3 to 254.3 °C.
The figure for `COc1ccc(CC(=O)Nc2ccc(S(N)(=O)=O)cc2C)cc1Oc1cc(C#N)ccc1Cl` [Compound I-66, 2-[3-(2-Chloro-5-cyano-phenoxy)-4-methoxy-phenyl]-N-(2-methyl-4-sulfamoyl-phenyl)-acetamide] is 232.9 to 236.9 °C.
The result for `COc1ccc(CC(=O)Nc2ccc(S(N)(=O)=O)cc2Cl)cc1Oc1cc(C#N)ccc1Cl` [Compound I-67, 2-[3-(2-Chloro-5-cyano-phenoxy)-4-methoxy-phenyl]-N-(2-chloro-4-sulfamoyl-phenyl)-acetamide] reads 214.6 to 216.4 °C; that for `Cc1cc(C#N)cc(C)c1Oc1cc(CC(=O)Nc2ccccc2Cl)ccc1Cl` [Compound I-68, 2-[4-Chloro-3-(4-cyano-2,6-dimethyl-phenoxy)-phenyl]-N-(2-chloro-phenyl)-acetamide], 183.9 to 185.1 °C; that for `COc1ccc(CC(=O)Nc2ccc(S(N)(=O)=O)cc2C)cc1Oc1cc(Cl)cc(C#N)c1` [Compound I-73, 2-[3-(3-Chloro-5-cyano-phenoxy)-4-methoxy-phenyl]-N-(2-methyl-4-sulfamoyl-phenyl)-acetamide], 222.3 to 224.3 °C.
For the compound `Cc1cc(S(N)(=O)=O)ccc1NC(=O)Cc1ccc(C)c(Oc2cc(Cl)cc(C#N)c2)c1F` [Compound I-74, 2-[3-(3-Chloro-5-cyano-phenoxy)-2-fluoro-4-methyl-phenyl]-N-(2-methyl-4-sulfamoyl-phenyl)-acetamide], the melting point lay within 230 to 232.2 °C.
Consider `Cc1cc(S(N)(=O)=O)ccc1NC(=O)Cc1ccc(C)c(Oc2cc(C#N)cc(C(F)F)c2)c1F` [Compound I-85, 2-[3-(3-Cyano-5-difluoromethyl-phenoxy)-2-fluoro-4-methyl-phenyl]-N-(2-methyl-4-sulfamoyl-phenyl)-acetamide], for which the melting point is 218 to 220.4 °C.
